Experimental data published in publication PMC9784495, “Pharmacokinetic Comparison of Ginsenosides between Fermented and Non-Fermented Red Ginseng in Healthy Volunteers” (Pharmaceutics, 2022).
“And” between values parts separate entries of the source, which are not always exact repeats. Equal entries are not always repeated. “Also recorded” adds a separate entry of the source. Where two headings read alike, the source gives them in different places. Marks after values point to notes of the source that are not given here.

Assay: Pharmacokinetics of ginsenosides in plasma after a single oral dose of 6 g FRG or RG, crossover clinical trial
Assay type: in vivo, human
Settings: for AUC24 GMR (90% CI) / AUClast GMR (90% CI) / Cmax GMR (90% CI): geometric mean ratio FRG with respect to RG; for Tmax / AUC / Cmax / AUC(0-t): human, po
Protocol: This study was designed as a randomized, open-label, single-dose, 2-sequence, 2-period crossover study with a washout period of 2 weeks to compare the pharmacokinetic parameters of ginsenosides in RG and FRG. All subjects underwent a screening test for enrollment in the current study, and the enrolled subjects were randomly allocated into one of two sequence groups: sequence 1, and sequence 2. The subjects in sequence group 1 were administered 6 g of FRG extract with 200 mL water in the first period, and 6 g of RG extract with 200 mL water in the second period, after a washout period of 2 weeks from the first administration. Subjects in sequence group 2 were administered 6 g of RG extract with 200 mL water in the first period, and then 6 g of FRG extract with 200 mL water in the second period, after the same washout period. During each period, for groups 1 and 2, subjects were hospitalized at the clinical trial center of Kyung Hee University Hospital at 5 PM the day before FRG or RG administration. They received a standardized dinner and fasted, except for drinking water, until FRG or RG administration. The following day, subjects were administered FRG or RG at 8 AM according to the assigned sequence group, and were not allowed to eat until 1 PM. All participants were provided lunch and dinner by the study staff. They were discharged at 2 PM the day after dosing with FRG or RG, and visited the clinical trial center at 8 AM the day after discharge. To assess pharmacokinetic parameters, blood samples (9 mL) were serially collected into heparinized tubes just before (0 h) the dose of FRG or RG, and after the dose of FRG or RG at the following time points: 0.5, 1, 2, 3, 4, 5, 6, 7, 8, 10, 12, 14, 24, and 30 h during hospitalization, and 48 h at the outpatient visit. Blood samples were placed into heparinized tubes and centrifuged immediately at 3500× g, 10 min, and −4 °C. Plasma was stored at −70 °C.
CY, CK, PPD, PPT, and Rh2 were analyzed as previously described. An Agilent 1200 series (Agilent Technologies, Santa Clara, CA, USA) or Shimadzu Nexera X2 (Shimadzu, Tokyo, Japan), and Applied Biosystems MDS SCIEX API 4000 Triple Quadrupole Mass Spectrometer (SCIEX, Framingham, MA, USA) with an ESI source in the negative ion mode, were used. Data were analyzed and processed using the Analyst 1.6.2 program (SCIEX, Framingham, MA, USA). Rb1 and F2 were analyzed using Elute UHPLC (Bruker, Billerica, MA, USA) and an EVOQ Elite triple quadrupole mass spectrometer (Bruker, Billerica, MA, USA) with an ESI source in positive ion mode. Data were acquired and processed using the Analyst 1.6.2 program (SCIEX, Framingham, MA, USA), and Bruker Daltonic MS Workstation 8.2.1 (Bruker, Billerica, MA, USA). Ginsenosides standards (Rb1, Rh2 and C-Y) were provided by the Ambo Institute (Daejeon, Republic of Korea). Ginsenosides standards (F2, CK, PPD and PPT) were provided by Ace Enzyme (Kyunggi-do, Republic of Korea). Digoxin, diphenhydramine hydrochloride, formic acid, ammonium acetate, and dimethyl sulfoxide were purchased from Sigma Aldrich (Saint Louis, MO, USA). Methanol, acetonitrile, ethyl acetate, and methyl tertiary butyl ether were purchased from J.T. Baker (Philipsburg, NJ, USA) and purified water for HPLC analysis was obtained using AQUA max® by Younglin (Kyunggi-do, Republic of Korea) water purification system. The final concentrations of the calibration standards were 0.5, 1, 2, 5, 10, 25, and 50 ng/mL, and those of the QC samples were 1.5, 7.5, and 40 ng/mL. The final concentrations of the CK calibration standard were 5, 50, 250, 500, 1000, 1500, and 2500 ng/mL, and those of the QC samples were 15, 1200, and 2000 ng/mL. The human plasma samples were taken out of the −70 °C freezer and thawed at room temperature for the bioanalysis. […]

[1] = plasma, after 6 g FRG oral single dose, median (min, max), read-out: Tmax
[2] = plasma, after 6 g RG oral single dose, median (min, max), read-out: Tmax
[3] = plasma, plasma, after 6 g FRG oral single dose, 0 to 24 h, mean ± SD, read-out: AUC24
[4] = plasma, plasma, after 6 g FRG oral single dose, healthy volunteers, mean ± SD, n = 15, read-out: Cmax
[5] = plasma, plasma, after 6 g FRG oral single dose, mean ± SD, read-out: AUClast
[6] = plasma, plasma, after 6 g RG oral single dose, 0 to 24 h, mean ± SD, read-out: AUC24
[7] = plasma, plasma, after 6 g RG oral single dose, healthy volunteers, mean ± SD, n = 15, read-out: Cmax
[8] = plasma, plasma, after 6 g RG oral single dose, mean ± SD, read-out: AUClast

Row | SMILES | AUC24 GMR (90% CI) | AUClast GMR (90% CI) | Cmax GMR (90% CI) | Tmax [1] [h] | Tmax [2] [h] | AUC [3] [ng·h/mL] | Cmax [4] [ng/mL] | AUC(0-t) [5] [ng·h/mL] | AUC [6] [ng·h/mL] | Cmax [7] [ng/mL] | AUC(0-t) [8] [ng·h/mL] | also measured
1 | CC(C)=CCC[C@](C)(O)[C@H]1CC[C@]2(C)[C@@H]1[C@H](O)C[C@@H]1[C@@]3(C)CC[C@H](O)C(C)(C)[C@@H]3[C@@H](O)C[C@]12C [PPT, protopanaxatriol] | 1.87 fold and 1.87 (1.16, 3.01) ^† fold | 1.76 fold and 1.76 (1.17, 2.65) ^† fold | 2.56 fold and 2.56 (1.83, 3.57) * fold | 6 | 19 | 63.7 ± 42.8 | 8.92 ± 5.38 | 83 ± 59.4 | 34.1 ± 24.7 | 3.5 ± 2 | 45.7 ± 32.1 | 
2 | CC(C)=CCC[C@](C)(O[C@@H]1O[C@H](CO)[C@@H](O)[C@H](O)[C@H]1O)[C@H]1CC[C@]2(C)[C@@H]1[C@H](O)C[C@@H]1[C@@]3(C)CC[C@H](O[C@@H]4O[C@H](CO)[C@@H](O)[C@H](O)[C@H]4O)C(C)(C)[C@@H]3CC[C@]12C [Ginsenoside F2] |  |  |  | 4.03 |  | 142 ± 34.3 | 14.7 ± 3.58 | 168 ± 47.4 |  |  |  | Plasma concentrations (after 6 g RG, F2 except one subject): below the lower limit of quantification; also recorded: below the LLOQ
3 | CC(C)=CCC[C@](C)(O[C@@H]1O[C@H](CO)[C@@H](O)[C@H](O)[C@H]1O)[C@H]1CC[C@]2(C)[C@@H]1[C@H](O)C[C@@H]1[C@@]3(C)CC[C@H](O)C(C)(C)[C@@H]3CC[C@]12C [CK, compound K] | 64.86 fold and 64.86 (51.12, 82.29) * fold | 74.53 fold and 74.53 (59.32, 93.64) * fold | 69.23 fold and 69.23 (55.93, 85.69) * fold | 3.02 |  | 8710 ± 2360 | 1550 ± 394 | 9440 ± 2620 | 158 ± 125 | 23.8 ± 12.2 | 145 ± 106 | Difference of median Tmax, FRG higher than RG (FRG versus RG): 1 h
4 | CC(C)=CCC[C@](C)(O)[C@H]1CC[C@]2(C)[C@@H]1[C@H](O)C[C@@H]1[C@@]3(C)CC[C@H](O)C(C)(C)[C@@H]3CC[C@]12C [PPD, protopanaxadiol] |  | 4.97 (2.38, 10.34) ^‡ fold |  | 12 | 27.1 | 48.7 ± 41.1 | 5.65 ± 4.78 | 92.2 ± 96.5 | 13.9 ± 19.1 | 1.99 ± 1.62 | 20.3 ± 25.1 | 
5 | CC(C)=CCC[C@](C)(O[C@@H]1O[C@H](CO[C@@H]2OC[C@H](O)[C@H](O)[C@H]2O)[C@@H](O)[C@H](O)[C@H]1O)[C@H]1CC[C@]2(C)[C@@H]1[C@H](O)C[C@@H]1[C@@]3(C)CC[C@H](O)C(C)(C)[C@@H]3CC[C@]12C [CY, compound Y] |  |  |  |  |  |  |  |  |  |  |  | AUC (in vivo, AUC24): 33.4 ± 9.82 ng·h/mL; AUC(0-t) (in vivo, AUClast): 32.5 ± 9.44 ng·h/mL; Cmax (in vivo, Cmax): 8.38 ± 2.22 ng/mL; Tmax (in vivo, Tmax): 3.02 h
6 | CC(C)=CCC[C@](C)(O[C@@H]1O[C@H](CO[C@@H]2O[C@H](CO)[C@@H](O)[C@H](O)[C@H]2O)[C@@H](O)[C@H](O)[C@H]1O)[C@H]1CC[C@]2(C)[C@@H]1[C@H](O)C[C@@H]1[C@@]3(C)CC[C@H](O[C@@H]4O[C@H](CO)[C@@H](O)[C@H](O)[C@H]4O[C@@H]4O[C@H](CO)[C@@H](O)[C@H](O)[C@H]4O)C(C)(C)[C@@H]3CC[C@]12C [Rb1] |  |  |  |  | 8 |  |  |  | 36.5 ± 25.6 | 2.33 ± 1.61 | 62.4 ± 48.1 | Plasma concentrations (after 6 g FRG): below the LLOQ
7 | CC(C)=CCC[C@](C)(O)[C@H]1CC[C@]2(C)[C@@H]1[C@H](O)C[C@@H]1[C@@]3(C)CC[C@H](O[C@@H]4O[C@H](CO)[C@@H](O)[C@H](O)[C@H]4O)C(C)(C)[C@@H]3CC[C@]12C [Rh2] | 18.17 fold and 18.17 (12.4, 26.62) * fold | 18.47 fold and 18.47 (12.74, 26.78) * fold | 20.27 fold and 20.27 (15.13, 27.17) * fold |  |  |  |  |  |  |  |  | Tmax (in vivo, after 6 g FRG oral single dose, median (min, max), read-out: Tmax): 3.02 h; Tmax (in vivo, after 6 g RG oral single dose, median (min, max), read-out: Tmax): 3 h; AUC (in vivo, plasma, after 6 g FRG oral single dose, 0 to 24 h, mean ± SD, read-out: AUC24): 135 ± 44.4 ng·h/mL; Cmax (in vivo, plasma, after 6 g FRG oral single dose, healthy volunteers, mean ± SD, n = 15, read-out: Cmax): 33 ± 11.9 ng/mL; AUC(0-t) (in vivo, plasma, after 6 g FRG oral single dose, mean ± SD, read-out: AUClast): 133 ± 42.6 ng·h/mL; AUC (in vivo, plasma, after 6 g RG oral single dose, 0 to 24 h, mean ± SD, read-out: AUC24): 8.97 ± 5.57 ng·h/mL; Cmax (in vivo, plasma, after 6 g RG oral single dose, healthy volunteers, mean ± SD, n = 15, read-out: Cmax): 1.77 ± 1.17 ng/mL; AUC(0-t) (in vivo, plasma, after 6 g RG oral single dose, mean ± SD, read-out: AUClast): 8.35 ± 4.31 ng·h/mL
